# Values joined by “and” are separate entries in the source; they are usually repeats but may differ in a detail not shown here. Identical values can stand only once.
# Experiments:
# [1] = tested on: Staphylococcus aureus biofilms; assay: S. aureus antibiofilm assay (log-reduction vs no treatment control); format: cell-based
# Experimental: Briefly, S. aureus biofilms were grown on sterile gauze at 37° C. for 72 hours (gauze was re-inoculated with S. aureus at 24 hours and 48 hours). After incubation, the gauze was rinsed with sterile water and placed onto Mueller Hinton agar (MHA) plates. The compound was dissolved in aqueous (RO water) solution at a concentration of 0.4 mg Ag/cm^2 or 10 mg Ag per 5×5 cm testing and placed on top of the gauze. The plates were incubated for 6 hours at 37° C. The remaining solution containing metal complexes was removed from the biofilm and the biofilm/gauze was neutralized in 10 mL of sodium thioglycolate. The bacteria were agitated to remove them from the gauze and the resulting bacterial suspensions were diluted and spread onto MHA plates which were incubated for 18-24 hours at 37° C. and the resulting viable bacterial colonies were enumerated. The log-reduction of S. aureus was calculated relative to the reduction achieved in the “no treatment” negative control samples. Results represent the average of triplicate data. The assay was repeated upon the aged solid state at a shelf life of 5 months (FIGS. 4A-B).
# [2] = Solid state stability under ambient conditions, analysed by UV-Vis spectroscopy; format: physicochemical; conditions: room temperature, ambient air and light, five months
# Experimental: Stability evaluation of each compound in its solid state stored under ambient conditions was performed.
# [3] = Acid-base titration curve (equivalence points); format: physicochemical; conditions: FIG. 1, inflection points of the curve; listed as JN300118-1
# From the text: In the various embodiments, sufficient concentrations of the acid or base to transform the first oxidized metal complex into the desired second oxidized metal complex may be determined using acid-base titration. As used herein, the term “acid-base titration” refers to a method of quantitative analysis for determining the concentration of an acid or base by exactly neutralizing it with a standard solution of base or acid having known concentration. A pH indicator may be used to monitor the progress of the acid-base reaction. An acid-base titration curve may be plotted on a graph to show the changes in the pH upon addition of acid or base. As shown for example in FIG. 1, the curve falls near equivalence points (inflection points of the curve). The quantity of acid or base required to reach each equivalence point (e.g., FIG. 1, pH 11.3, 5.7) may be identified from the graph.
# At each equivalence point or corresponding pH, the first oxidized metal complex may be transformed into a different second oxidized metal complex. […]
# [4] = S. aureus biofilm on gauze, 0.4 mg Ag/cm^2 in RO water, 6 hours at 37° C.
compound,measurement,setting,value
K5-3H0-2Ag(IO5OH)2 [JN150618-3],antimicrobial activity,[1]; [4],"bright red crystals, antimicrobial activity"
diperiodatoargentate potassium salt [JN300518-2a],solid state stability,[2],"bright red crystals, solid state stability,"
"[Ag+].[Ag+].[Ag+].[Ag+].[Ag+].[O-][I+]([O-])([O-])([O-])([O-])[O-] [JN111018-3, Pentasilver periodate, reference compound]",antimicrobial activity,[1]; [4],"antimicrobial activity, yield"
"Sodium diperiodatoargentate Na5Ag(IO5OH)216H2O [JN091118-2, reference compound]",antimicrobial activity,"[1]; S. aureus biofilm as Example 2, but semi-solid formulation (about 0.083 g) dissolved into RO water (1 mL), 0.4 mg Ag/cm^2","Atkinson, antimicrobial activity, yield"
K4-1H1-4Ag(IO5OH)2O [JN301118-1],equivalence point of acid-base titration curve,[3],11.3 pH and 5.7 pH

# — patent US12410064B2, “Preparation of soluble compounds” (EXCITON PHARMA CORP., priority 2019, dated 2025)
